Source: article PMC8761912, “Cryptosporidium parvum Pyruvate Kinase Inhibitors With in vivo Anti-cryptosporidial Efficacy” (Frontiers in Microbiology, 2022)

Experiments:
C. parvum [1] = assay: Histopathology of distal small intestine of C. parvum-infected IFN-γ KO mice; format: in vivo, Cryptosporidium parvum; conditions: 1,000 mg/kg daily oral from day 3 PI, sacrificed day 11 PI
Procedure: (§1) Eight weeks old male interferon-gamma knockout (IFN-γ KO) mice (B6.129S7-Ifng^TM1Ts/J) were purchased from The Jackson Laboratory, United States, and allowed to quarantine and acclimatize for 1 week before the commencement of experiments. Before the start of the infection assays in mice, the tolerability of each inhibitor was determined by daily oral gavage with varying dosages (0–10 mg/kg mouse bodyweight) in groups of mice (n = 3 mice per group) for 8 days. During this period, mice were monitored daily for any changes in physical and mental activity, feeding, body weight, body temperature, fur condition, and body posture. […] Mice were divided into infected and uninfected groups (n = 3 mice per group) and each individual mouse was housed in a separate cage lined with sterile gauze bedding. Each mouse from the infected group was infected by oral gavage administration of 10^4 C. parvum AUCP-1 isolate oocysts suspended in 50 μl of PBS. Beginning day 3 PI, groups of mice were orally treated with CpPyK inhibitors (at the specified doses), sham (100 μl of 5% DMSO in PBS), or 1,000 mg/kg paromomycin (in sterile water) once daily for a total of 8 days. Fecal pellets were collected daily in individual sterile 15 ml tubes, and submerged in an equivalent volume of PBS containing a cocktail of penicillin (100 units/ml), streptomycin (100 μg/ml), chloramphenicol (34 μg/ml), and amphotericin (0.25 μg/ml), and stored at 4°C until use. Three independent replicate infection assays were performed. Mice were sacrificed at day 11 PI, and 5 cm of the distal small intestine just anterior to the cecum was resected and submerged in 10% neutral buffered formalin and submitted for histopathological processing in the Comparative Biosciences Histology Laboratory at the University of Illinois at Urbana-Champaign. Briefly, intestinal tissues preserved in 10% neutral buffered formalin were washed in 70% ethanol, embedded in paraffin, and sectioned transversely at a thickness of 5 μm. Sections were stained with hematoxylin and eosin. The slides were imaged using a Zeiss microscope fitted with a color camera.

C. parvum [2] = test system: C. parvum; design: method as in Li et al., 2019; conditions: reported value; ref Li et al., 2019; read-out: in vitro anti-Cryptosporidium EC50; cited from earlier work
C. parvum [3] = assay: In vivo efficacy in C. parvum-infected IFN-γ KO mice, fecal oocysts load by qPCR; design: species or system Cryptosporidium parvum; conditions: paromomycin 1,000 mg/kg oral once daily from day 3 PI
Procedure: as §1
DNA was isolated from 250 mg of feces collected from individual mice using the QIAamp® PowerFecal® Pro DNA kit (Qiagen, United States) following the manufacturer’s protocol. Oocysts load per gram of feces was measured by quantitative real time PCR (qPCR) analysis of the Cp18s rRNA gene (GenBank accession number AF164102) using gene-specific primers: 5′-[…]-3′ (Forward) and 5′-[…]-3′ (Reverse), described previously ([Parr et al., 2007]). To generate a quantification standard curve, fecal samples were obtained from uninfected mice and spiked with 10^8 C. parvum oocysts per gram of feces, followed by isolation of DNA as described above. Ten-fold serial dilutions of the extracted DNA were made and used as quantification standards for qPCR. C. parvum oocysts load quantification for the test mice was performed using DNA samples from the infected feces. Each 20 μl qPCR reaction contained 10 μl of PowerUp™ SYBR™ Green Master Mix (Applied Biosystems, United States), 500 nM of each primer, and 2 μl of DNA template. After 2 min of initial denaturation at 95°C, 40 cycles of denaturation at 95°C for 15 sec and annealing/extension at 60°C for 1 min were performed in a 7500 Real-Time PCR System (Applied Biosystems, United States). The oocyst load per gram of feces was derived by the 7500-system software using the generated quantification standard curves (Supplementary Figure 1).

For NC[C@@H]1O[C@H](O[C@H]2[C@@H](O)[C@H](O[C@@H]3[C@@H](O)[C@H](N)C[C@H](N)[C@H]3O[C@H]3O[C@H](CO)[C@@H](O)[C@H](O)[C@H]3N)O[C@@H]2CO)[C@H](N)[C@@H](O)[C@@H]1O [Paromomycin, reference compound], the “intestinal pathology (histology, distal small intestine)” value (C. parvum [1]) is given as “notably reduced pathological changes”, the EC50 (C. parvum [2]) is given as 450 µM and the “oocysts load by day 9 PI vs other treatments and untreated group” value (C. parvum [3]) is given as “significantly (P < 0.05) lower oocysts loads”.
